From patent US7838122B2, “Hydrazide compounds with angiogenic activity” (Rutgers, the State University of New Jersey, priority 2003, dated 2010)

How the values were obtained:
[1] = system: Rat lung fibroblasts (RLF-6); test: Cytotoxicity, CellTiter96 Aqueous One Solution Cell Proliferation Assay; conditions: RFL-6 cells; serial dilutions 200 to 7.8 mg/mL in SBF; read at 490 nm
Protocol: In vitro biocompatibility studies of PEG-di-DT hydrazide were assessed by analyzing cytotoxicity. […] The CellTiter96® Aqueous One Solution Cell Proliferation Assay (Promega, Madison, Wis.) was used to determine cytotoxicity. Plates were read on a PowerWavex absorbance plate reader, (Bio-Tek Instrumentation, Inc., Highland Park, Vt.).
Cell toxicity studies were carried out in 96-well plates made of tissue-cultured polystyrene, and ˜3×10^3 cells were seeded in each well. Serial dilutions of PEG-di-DT hydrazide were prepared in concentrations ranging from 200 mg/mL to 7.8 mg/mL using SBF as the diluent. Volume of media was kept constant to prevent nutritional advantages. Filter-sterilized dilutions (n=6) were plated in a 96 well plate and controls of media+cells+diluent (to account for affects of the diluent), and media+cells (optimal cell culture conditions) were employed. […] The plates were incubated for 2 hours and read at 490 nm on an absorbance plate reader. Data were analyzed using a two-tailed Student t-test, establishing statistical significance at p<0.05 when compared to cells grown in the cell+media+diluent control.

[2] = Scaffold degradation study in SBF at 37° C. (HPLC, TGA, gravimetry)
Protocol: To determine degradation products of porous scaffolds (compositions used: 100/80, 50/40 and 25/20), hydrogel disks of various compositions samples were incubated at 37° C. in SBF at a constant weight to volume ratio of 5 mg/mL, maintaining a constant surface area to volume ratio. Over a one-week period, aliquots were removed and analyzed by HPLC. Buffer solutions were changed every two weeks to maintain sink conditions. Samples were analyzed over a 6-month period for degradation products in the buffer by HPLC, for water uptake by TGA, and mass loss by gravimetry. Aliquots of the degradation media were analyzed by HPLC. The HPLC system consisted of a reversed-phase (C18) column (Perkin-Elmer, Norwalk, Calif.), an LC pump (Model 410; Perkin-Elmer), a UV array detector at 220 nm (Model 235 Perkin-Elmer), an autoinjector (Model ISS-100; Perkin-Elmer), and a computerized data station (Turbochrom; Perking Elmer). A gradient system of water:acetonitrile was used as an eluent to capture each degradation product. Degradation was monitored using DT and DTE standards, and quantitation of degradation products was determined from the area under the signal peaks in the chromatogram after correlating to the standards. […] Mass loss was calculated as the % ratio of weight lost over initial weight. […]

[3] = system: Human aortic endothelial cells (HAEC); test: In vitro endothelial cell migration assay (transwell microchemotaxis chamber); type: cell-based
Protocol: Endothelial cells were known to respond to angiogenic factors which cause motility and mitosis, and ultimately the release of growth factors from the cells. Human aortic endothelial cells (HAEC) were cultured at passage 8 and maintained and fed with MCDB 131 media with EGM-2 (Clonetics) until the day of the experiment. Cultures were maintained at 37° C., 5% CO2 and 100% humidity. Comparisons were made of PEG-di-DT Hydrazide activity versus basic FGF-β. The PEG-di-DT hydrazide and basic FGF-β were dissolved in MCDB 131 media. Basic FGF-β was used as a positive control due to its well documented angiogenic activity and extensive testing. Dose-response curves were obtained for PEG-di-DT Hydrazide and basic FGF-β. PEG-dihydrazide, DT monomer, and PEG (Mw=2000), were prepared in MCDB 131 media according to Table 2, and were also tested. Migration assays were performed in a 24-well microchemotaxis chamber (Co-Star) containing transwells of untreated polycarbonate membranes with 8 μm pores. Both the transwells and well bottoms were coated overnight with a 10 μg/mL fibronectin solution (Calbiochem). HAE cells were harvested and resuspended at a concentration of 4.5×10^5 cells/0.1 mL in the corresponding medium. Media was also tested to determine baseline chemotaxis. The bottom wells were filled with 500 μL of test solution, and the transwells were seeded with […] and incubated for 6 hours at 37° C. The cells that migrated through the membrane were quantitated by counting the whole area of the filter using a grid and a (Olympus) microscope at 40× or 20× magnification.

CC(O)C(=O)[O-].[Na+] (stereo not shown) [Sodium Lactate, sodium lactate]
Results of the Cytotoxicity Assay [1]: 3 mg/mL

CCOC(=O)[C@H](Cc1ccc(O)cc1)NC(=O)CCc1ccc(O)cc1 [DTE, desaminotyrosyl-tyrosine ethyl ester]
time by which degradation product was undetectable by HPLC ([2]; degradation media of hydrogels, SBF, 37° C.): ≤ 12 weeks

FGF-β: growth factor, known angiogenic substance used as positive control
dose dependence of cell migration ([3]; FIG. 7 / FIG. 8): dose dependent manner
minimum effective concentration (cell migration) ([3]; HAEC, 6 hours, FIG. 6): 0.01 µg/mL
cell migration response versus media alone ([3]; all concentrations tested): higher cell migration response than the media alone

O=C(CCc1ccc(O)cc1)N[C@@H](Cc1ccc(O)cc1)C(=O)O [DT, desaminotyrosyl-tyrosine free carboxylic acid]
cell migration ([3]; HAEC, 6 hours at 37° C.): Neither PEG 2000 nor DT solutions caused cell migration to occur
presence of degradation product during degradation ([2]; HPLC, 6-month study): continued to remain during the course of degradation
